The target in series [1] is T1, cyp2b1 (Rattus norvegicus, UniProt P00176).
T1 sequence (P00176 1-491): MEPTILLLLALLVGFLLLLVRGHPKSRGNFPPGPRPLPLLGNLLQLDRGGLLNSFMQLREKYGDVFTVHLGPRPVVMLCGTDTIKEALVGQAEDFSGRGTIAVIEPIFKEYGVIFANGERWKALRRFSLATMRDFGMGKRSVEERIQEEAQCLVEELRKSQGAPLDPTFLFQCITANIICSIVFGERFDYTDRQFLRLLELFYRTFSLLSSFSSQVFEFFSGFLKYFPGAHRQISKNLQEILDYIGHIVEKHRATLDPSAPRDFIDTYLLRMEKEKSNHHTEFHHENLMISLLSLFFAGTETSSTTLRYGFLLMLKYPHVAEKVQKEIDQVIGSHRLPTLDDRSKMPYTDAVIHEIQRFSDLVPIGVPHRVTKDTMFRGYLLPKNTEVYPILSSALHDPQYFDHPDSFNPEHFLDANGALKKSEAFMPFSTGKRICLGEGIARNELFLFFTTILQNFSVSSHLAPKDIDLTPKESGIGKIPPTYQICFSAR
Put plainly: Mechanism of inhibition (Lineweaver-Burk plots), bupropion in RLMs. Type of series: in vitro ADME. Also noted: from tissue; host or cells: rat liver microsomes, prepared in-house. As for the experimental part:
(§1) To elucidate the mechanism of inhibition of cyp2b1 and 2c11 by poziotinib, we examined the interaction of different concentrations of poziotinib with bupropion and tolbutamide, respectively. Poziotinib was preincubated with 1 mg/ml of RLMs and probe substrate in a 37°C shaking water bath for 5 min, following which NADPH was added and incubated for 30 min. The concentrations of poziotinib were 0, 2, 4, 8 and 16 μM for 2b1, 0, 5, 10 20 and 40 μM for 2c11. The concentrations of bupropion were 5, 10, 20, and 40 μM, and the concentrations of tolbutamide were 25, 50, 100, and 200 μM. Poziotinib was incubated with different concentrations of the probe substrates in triplicate. The reactions were carried out, stopped, and processed as described in 2.3. Lineweaver-Burk plots were graphed.

For series [2], the system named is cyp1a2. The experiment in a line: Effect of poziotinib on cyp1a2 activity in rats (phenacetin pharmacokinetics). The series is classed as in vivo, Sprague-Dawley rats. As to conditions: poziotinib 5 mg/kg oral 7 days, phenacetin probe.
Protocol: (§3) Twelve male Sprague-Dawley rats (230 ± 20 g) were randomly divided into treated and control groups, with 6 in each group. […] The supernatant was mixed with 200 μL of acetonitrile and 20 μL of 0.5 μg/ml diazepam (IS), vortexed for 30 s, centrifuged at 13,000 rpm for 5 min, and the supernatant was injected into the UPLC-MS/MS system for analysis.
(§4) Pharmacokinetic parameters were calculated using DAS software (Version 3.2.8). SPSS software (version 16.0; SPSS Inc., Chicago, IL, United States) was used to analyze the significance of differences between the main pharmacokinetic parameters. p < 0.05 was considered statistically significant. GraphPad (version 8.0; GraphPad Software Inc., San Diego, CA, United States) was used to calculate IC50 and plot the plasma concentration-time curves and inhibition plots (type of inhibition, time- and concentration-dependence).
Series [3] has as its system cyp3a1/2. The experiment in a line: Cocktail method IC50 in rat liver microsomes, midazolam probe. Type of series: in vitro ADME. The protocol: (§2) The cocktail method was employed to analyze the effects of poziotinib on cyp1a2, cyp2b1, cyp2c11, cyp2d1, cyp2e1, and cyp3a1/2. […] Then half-maximal inhibitory concentration (IC50) of poziotinib was determined with all of the CYPs. […]. To this cocktail, 1 mg/ml of RLMs, 100 mM potassium phosphate buffer (pH 7.4), poziotinib (1, 2.5, 5, 10, 25, 50, or 100 μM) were added to obtain a final volume of 200 μL. After pre-incubation of this mixture for 5 min in a shaking water bath at 37°C, 1 mM NADPH was added to start the reaction. The reactions were allowed to proceed for 30 min, after which 200 μL of acetonitrile and 20 μL of IS were added to terminate the reactions. The mixtures were vortexed for 30 s and centrifuged again at 13,000 rpm for 5 min.
For orientation: Microsomes from liver hold many membrane-bound enzymes, among them those of drug oxidation.

The target of series [4] is T1, cyp2b1. The experiment in a line: Time- and concentration-dependent inhibition in RLMs, bupropion. Set-up: from tissue; host or cells: rat liver microsomes, prepared in-house. Type of series: in vitro ADME. As for the experimental part:
A mixture containing 1 mg/ml of RLMs, different concentrations of poziotinib (0, 2, 4, 8 and16 μM for 2b1; 0, 5, 10 20 and 40 μM for 2c11), and NADPH was pre-incubated at 37°C for 0, 5, 10, and 20 min; Methanol instead of poziotinib was performed as control. Then 20 μM bupropion or 100 μM tolbutamide was added and incubated at 37°C for 30 min. The reactions were carried out and analyzed in triplicate as described in 2.3.

Series [5] concerns the target T2, cyp2c11 (Rattus norvegicus, UniProt P08683).
T2 sequence (P08683 1-500): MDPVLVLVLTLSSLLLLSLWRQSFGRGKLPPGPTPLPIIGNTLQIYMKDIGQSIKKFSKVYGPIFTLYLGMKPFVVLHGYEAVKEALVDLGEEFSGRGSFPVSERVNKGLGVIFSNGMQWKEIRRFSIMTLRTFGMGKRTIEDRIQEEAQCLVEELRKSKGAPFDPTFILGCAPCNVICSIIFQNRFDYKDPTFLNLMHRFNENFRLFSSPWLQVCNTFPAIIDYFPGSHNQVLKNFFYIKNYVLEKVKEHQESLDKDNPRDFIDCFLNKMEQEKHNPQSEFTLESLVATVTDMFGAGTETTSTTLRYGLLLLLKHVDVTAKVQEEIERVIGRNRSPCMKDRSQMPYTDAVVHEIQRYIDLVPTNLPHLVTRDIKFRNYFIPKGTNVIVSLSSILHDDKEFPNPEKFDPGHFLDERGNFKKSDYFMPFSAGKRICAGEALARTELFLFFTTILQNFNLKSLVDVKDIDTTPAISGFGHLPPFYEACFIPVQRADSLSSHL
Put plainly: Mechanism of inhibition (Lineweaver-Burk plots), tolbutamide in RLMs. The series is classed as in vitro ADME. Set-up: from tissue; host or cells: rat liver microsomes, prepared in-house. As for the experimental part:
as §1

Series [6] addresses T2, cyp2c11. The experiment in a line: Effect of poziotinib on cyp2c11 activity in rats (tolbutamide pharmacokinetics). As to conditions: poziotinib 5 mg/kg oral 7 days, tolbutamide probe. Set-up: from tissue; host or cells: living male Sprague-Dawley rats (whole animal). Type of series: in vivo, Sprague-Dawley rats.
Protocol: as §3, §4
Series [7] deals with T2, cyp2c11. Put plainly: Cocktail method IC50 in rat liver microsomes, tolbutamide probe. Also noted: from tissue; host or cells: rat liver microsomes, prepared in-house. The series is classed as in vitro ADME. As for the experimental part: as §2

Molecules are shown by their SMILES. Where two headings read alike, the source gives them in different places. Some results are limits rather than exact numbers.

One may read the Ki as a measure of affinity in units of concentration, obtained from inhibition or displacement. Read a low Ki as a stronger hold on the target. Broadly, the IC50 is the concentration that gives 50% inhibition. Consider `C=CC(=O)N1CCC(Oc2cc3c(Nc4ccc(Cl)c(Cl)c4F)ncnc3cc2OC)CC1` [Poziotinib], for which, in series [1] (Lineweaver-Burk plots), the “type of inhibition of cyp2b1” value is listed as “competitive”. The Ki in series [1] (rat liver microsomes, bupropion 5-40 μM, poziotinib 0-16 μM, secondary plot) was 16.2 µM; in series [5] (rat liver microsomes, tolbutamide 25-200 μM, poziotinib 0-40 μM, secondary plot), 17.7 µM. Further, in series [2], the “effect on cyp1a2 activity in rats” value is listed as “induces cyp1a2 activity”. Further, the “inhibitory effect on cyp3a1/2 (in words)” value in series [3] is given as “did not show any obvious inhibitory effect”; in series [3] (listed as poziotinib) it was “not obvious”. In addition, the IC50 at 30 min in series [3] (pH 7.4, probe midazolam (5 μM), 5 μM midazolam, cocktail, 30 min) worked out at 303 µM. In series [4] (pre-incubation 0, 5, 10, 20 min, poziotinib 2-16 μM), the “time- and concentration-dependent inhibition of cyp2b1” value is given as “no time- or concentration-dependent inhibitory effects”. Besides, the “reversibility of inhibition of cyp2b1” value in series [4] (pre-incubation 0, 5, 10, 20 min with NADPH) is given as “reversible”. Besides, the “type of inhibition of cyp2c11” value in series [5] (Lineweaver-Burk plots) is “competitive”. Further, in series [6], the “effect on cyp2c11 activity in rats” value is “significantly inhibitory effect”. Further, the “inhibitory effect on cyp2c11 (in words)” value in series [7] is on record as “strong”. Further, the IC50 in series [7] (100 μM tolbutamide, cocktail, 30 min, read-out: IC50) is 20.2 µM; in series [7] (classes after Jin et al., 2015, read-out: inhibition class by IC50, CYP2C11), > 10 µM.

Values taken from PMC7970697, “Inhibition and Induction by Poziotinib of Different Rat Cytochrome P450 Enzymes In Vivo and in an In Vitro Cocktail Method” (Frontiers in Pharmacology, 2021).
